Data: patent publication US20200246322A1, “METHOD FOR TREATING GLUTEN-RELATED ALLERGIES AND I[…] WITH LOPERAMIDE” (priority 2019, published 2020)

Test system: gluten intolerance
Assay: treating/preventing gluten intolerance with oral loperamide (experience of the inventor)
Type: in vivo, patient
Details: dosage titrated, as long as it is the type of gluten intolerance that responds to loperamide and the proper daily dosage is adhered to
Text: The present invention may include a new use of the existing OTC medication (generic: loperamide, brand: Immodium™) to be taken orally by patient suffering from gluten allergy/intolerance symptoms. The Loperamide is taken until the gluten allergy/intolerance symptoms are relieved.
The amount of loperamide needed to treat/prevent the symptoms of gluten intolerance can be quite a bit higher than the levels that can cause constipation. In that case, a slow increase in dosage may be necessary in order to create a resistance to the constipatory effects. Titration may be necessary to reach the proper dosage to eliminate the symptoms, starting preferably with the standard lowest dosage of loperamide recommended to treat diarrhea (2 mg tablet after the first loose stool, 1 tablet after each subsequent loose stool) and adding 1×2 mg tablet every 6 hours until stool consistency normalizes, at which point the symptoms of gluten intolerance will disappear completely, if it is the type of gluten intolerance that is treatable with loperamide. In the experience of the inventor, the rate of successfully treating/preventing gluten intolerance completely is 100%, as long as it is the type of gluten intolerance that responds to loperamide, and the proper daily dosage is adhered to once it is determined to be effective for the patient.

## CN(C)C(=O)C(CCN1CCC(O)(c2ccc(Cl)cc2)CC1)(c1ccccc1)c1ccccc1 [loperamide]
  rate of successfully treating/preventing gluten intolerance completely: 100%
